Source: US8193193B2, “Agent for prevention or treatment of glaucoma” (Kowa Co., Ltd., priority 2005, dated 2012)

How the values were obtained:
[1] = test system: IOP; assay: Ocular hypotensive effect after instillation, alone or in combination, in rabbits (change from initial IOP); format: in vivo, Japanese white rabbits; details: male JW rabbits, brinzolamide 1%, 50 μL; for persistence of ocular hypotensive action (FIG. 1): after 3 or 4 hours from instillation, 0.5% solution; for persistence of ocular hypotensive action (FIG. 2): after 4 and also 5 hours from instillation, 1.5% solution
Description: To examine usefulness of combination use of a Rho kinase inhibitor and a carbonic anhydrase inhibitor, the ocular hypotensive effects were compared by administering either of these drugs alone or both in combination to laboratory animals. (S)-(−)-1-(4-fluoro-5-isoquinolinesulfonyl)-2-methyl-1,4-homopiperazine-hydrochloride dihydrate was dissolved in physiological saline, and the solution was neutralized (pH 6.0) by adding sodium dihydrogenphosphate and sodium hydroxide to prepare a (S)-(−)-1-(4-fluoro-5-isoquinolinesulfonyl)-2-methyl-1,4-homopiperazine solution at a desired concentration. The commercially available “Eril® S Injection” (Asahi Kasei Pharma) was used as it was. The commercially available “Azopt® Ophthalmic Suspension 1%” (Alcon Japan Ltd.) was used as it was. The ocular hypotensive effect was examined after the combination use of (S)-(−)-1-(4-fluoro-5-isoquinolinesulfonyl)-2-methyl-1,4-homopiperazine and brinzolamide. As a control, the ocular hypotensive effect was also examined after the use of brinzolamide alone or (S)-(−)-1-(4-fluoro-5-isoquinolinesulfonyl)-2-methyl-1,4-homopiperazine alone. Similarly, the ocular hypotensive effect was examined after the combination use of hexahydro-1-(5-isoquinolinesulfonyl)-1H-1,4-diazepine and brinzolamide. As a control, the ocular hypotensive effect was also examined after the use of brinzolamide alone or hexahydro-1-(5-isoquinolinesulfonyl)-1H-1,4-diazepine alone. (S)-(−)-1-(4-fluoro-5-isoquinolinesulfonyl)-2-methyl-1,4-homopiperazine solution: 0.5% solution (instillation volume, 50 μL) Hexahydro-1-(5-isoquinolinesulfonyl)-1H-1,4-diazepine solution: fasudil hydrochloride hydrate injection (1.5% solution [trade name: Eril® S Injection]; instillation volume, 50 μL) Brinzolamide solution: brinzolamide ophthalmic solution ([trade name: Azopt® Ophthalmic Suspension 1%]; instillation volume, 50 μL) Laboratory animals: Japanese white rabbits (male JW rabbits, 5 animals per group) 1). One drop of 0.4% oxybuprocaine hydrochloride ophthalmic solution (trade name: Benoxil Ophthalmic Solution 0.4%) was instilled in both eyes of the laboratory animals for local anesthesia (only data for the instilled eyes are shown). 2) IOP was measured immediately before administration of the test compound solution as the initial IOP. 3) The brinzolamide solution was instilled in one eye of the laboratory animals, followed by the instillation of (S)-(−)-1-(4-fluoro-5-isoquinolinesulfonyl)-2-methyl-1,4-homopiperazine solution in the same eye. 4) At 1 hour, 2 hours, 3 hours, 4 hours, and 5 hours after the instillation of both drugs, one drop each of 0.4% oxybuprocaine hydrochloride ophthalmic solution was instilled in both eyes for local anesthesia, and IOP was measured. […]

[2] = test system: IOP; details: rabbits with normal IOP, cited from earlier work

C[C@H]1CNCCCN1S(=O)(=O)c1cccc2cncc(F)c12 [(S)-(−)-1-(4-fluoro-5-isoquinolinesulfonyl)-2-methyl-1,4-homopiperazine]
persistence of ocular hypotensive action (FIG. 1) [1]: ocular hypotensive effect disappeared

C[C@@H](N)c1ccc(C(=O)Nc2ccnc3[nH]ccc23)cc1 [Y-39983, 4-[(1R)-1-aminoethyl]-N-1H-pyrrolo[2,3-b]pyridin-4-ylbenzamide]
time after instillation from which IOP is lowered [2]: 1 h
maximum IOP reduction ([2]; instillation, concentration of 0.1%): 15 mmHg

CCN[C@H]1CN(CCCOC)S(=O)(=O)c2sc(S(N)(=O)=O)cc21 [brinzolamide]
persistence of ocular hypotensive action (FIG. 1) [1]: ocular hypotensive effect disappeared
persistence of ocular hypotensive action (FIG. 2) [1]: ocular hypotensive effect disappeared

O=S(=O)(c1cccc2cnccc12)N1CCCNCC1 [hexahydro-1-(5-isoquinolinesulfonyl)-1H-1,4-diazepine]
persistence of ocular hypotensive action (FIG. 2) [1]: ocular hypotensive effect disappeared
